This passage reports IC50 results from patent US20240360178A1, “MACROCYCLIC IMMUNOMODULATORS” (Bristol-Myers Squibb Company, priority 2021, published 2024).

This test has as its target T1, human PD-1 (Jurkat-PD-1 cells) / PE-labeled human PD-L1-Ig (Homo sapiens, UniProt Q15116).
T1 construct: expressed in transfected cells; host or cells: Jurkat cell line over-expressing human PD-1
The experiment in a line: Jurkat-PD-1 Cell Binding High-Content Screening Assay (CBA); Jurkat hPD1-PDL1 assay. Particulars: Jurkat cell line over-expressing human PD-1; PE-labeled PD-L1-Ig 20 nM final; compound incubated 2 hours at 37° C.; read-out: Jurkat HPD1-PDL1 IC50. Put shortly: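 Jurkat cells over-expressing human PD-1, seeded in DMEM with 10% fetal calf serum, were preincubated with compound for 2 hours at 37° C. PE-labeled human PD-L1-Ig was then added at 20 nM final, and cell-bound fluorescence was read by high-content imaging.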

Positions of bridges follow the written chain, without caps; N, C: chain ends. Non-standard residues stand in square brackets, D forms with d. Residues, ends and D or L forms follow the SMILES beside them. ξ: configuration not given here. *: point of attachment. Phe(4-COOH) = N[C@@H](Cc1ccc(C(=O)O)cc1)C(=O)O; Bip = N[C@@H](Cc1ccc(-c2ccccc2)cc1)C(=O)O; Phe(3-CN) = N#Cc1cccc(C[C@H](N)C(=O)O)c1; Phe(3-OMe) = COc1cccc(C[C@H](N)C(=O)O)c1; Phe(3-Me) = Cc1cccc(C[C@H](N)C(=O)O)c1; Ala(cPent) = N[C@@H](CC1CCCC1)C(=O)O; NMeY = CN[C@@H](Cc1ccc(O)cc1)C(=O)O; Val(3-OH) = CC(C)(O)[C@H](N)C(=O)O; NMeF = CN[C@@H](Cc1ccccc1)C(=O)O; 4Pal = N[C@@H](Cc1ccncc1)C(=O)O; dTic = O=C(O)[C@H]1Cc2ccccc2CN1; Cha = N[C@@H](CC1CCCCC1)C(=O)O; hSer = N[C@@H](CCO)C(=O)O; Carboxymethyl = O=C(O)C*; NMeA = CN[C@@H](C)C(=O)O; Orn = NCCC[C@H](N)C(=O)O; Dab = NCC[C@H](N)C(=O)O; Dap = NC[C@H](N)C(=O)O; ξV = CC(C)C(N)C(=O)O; Sar = CNCC(=O)O

T1 sequence (Q15116 25-288): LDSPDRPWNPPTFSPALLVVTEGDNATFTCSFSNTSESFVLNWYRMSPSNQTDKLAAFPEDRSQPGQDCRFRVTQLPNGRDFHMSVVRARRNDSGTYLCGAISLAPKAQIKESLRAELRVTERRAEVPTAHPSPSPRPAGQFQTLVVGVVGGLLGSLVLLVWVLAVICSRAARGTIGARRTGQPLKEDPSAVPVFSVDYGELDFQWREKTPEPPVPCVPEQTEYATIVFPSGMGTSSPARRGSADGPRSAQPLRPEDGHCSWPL

For the compound `Cc1cccc(C[C@@H]2NC(=O)[C@H](CC(=O)O)NC(=O)[C@H](Cc3ccc(OCC(=O)O)cc3)NC(=O)[C@H](Cc3ccncc3)NC(=O)CSC[C@@H](C(=O)N[C@@H](CCN)C(N)=O)NC(=O)[C@H](CO)NC(=O)[C@H](C(C)(C)O)NC(=O)[C@H](CC3CCCCC3)NC(=O)[C@H](CCN)NC(=O)[C@H]3CCCN3C(=O)[C@H](C)N(C)C(=O)[C@H](Cc3ccc(OCC(=O)O)cc3)NC(=O)[C@H](Cc3ccc(-c4ccccc4)cc3)NC(=O)[C@H](Cc3ccc(C(=O)O)cc3)NC2=O)c1` [Example 1178] ({CH2CO}-[4Pal]Y(Carboxymethyl)D[Phe(3-Me)][Phe(4-COOH)][Bip]Y(Carboxymethyl)[NMeA][dP][Dab][Cha][Val(3-OH)]SC[Dab]-NH2; thioether N-14), the IC50 worked out at 0.07 µM. The figure for `CC(C)C[C@@H]1NC(=O)[C@H](CCCNC(=N)N)NC(=O)[C@H](Cc2ccccc2)N(C)C(=O)[C@H](C)N(C)C(=O)[C@H](CCCNC(=N)N)NC(=O)[C@H](Cc2ccc(-c3ccccc3)cc2)NC(=O)[C@H](C(C)C)NC(=O)[C@H](Cc2c[nH]c3ccccc23)NC(=O)[C@H](CC(=O)O)NC(=O)[C@H](Cc2ccc(O)cc2)NC(=O)[C@H](CC(N)=O)NC(=O)CSC[C@@H](C(=O)NCC(N)=O)NC(=O)[C@H](CO)NC(=O)[C@H](C(C)C)NC1=O` [Example 1032] ({CH2CO}-NYDWV[Bip]R[NMeA][NMeF]RLVSCG-NH2; thioether N-14) is 0.06 µM. The figure for `CC(C)C[C@@H]1NC(=O)[C@H](CCCCN)NC(=O)[C@H](Cc2ccccc2)N(C)C(=O)[C@H](C)N(C)C(=O)[C@H](CCCNC(=N)N)NC(=O)[C@H](Cc2ccc(-c3ccccc3)cc2)NC(=O)[C@H](C(C)C)NC(=O)[C@H](Cc2c[nH]c3ccccc23)NC(=O)[C@H](CC(=O)O)NC(=O)[C@H](Cc2ccc(O)cc2)NC(=O)[C@H](CC(N)=O)NC(=O)CSC[C@@H](C(=O)N[C@@H](C)C(N)=O)NC(=O)[C@H]([C@@H](C)O)NC(=O)[C@H](C(C)C)NC1=O` [Example 1384] ({CH2CO}-NYDWV[Bip]R[NMeA][NMeF]KLVTCA-NH2; thioether N-14) is 0.22 µM; for `CC(C)C[C@@H]1NC(=O)[C@H](CCCNC(=N)N)NC(=O)[C@H](Cc2ccccc2)N(C)C(=O)[C@H](C)N(C)C(=O)[C@H](CCCNC(=N)N)NC(=O)[C@H](Cc2ccc(-c3ccccc3)cc2)NC(=O)[C@H](C(C)C)NC(=O)[C@H](Cc2c[nH]c3ccccc23)NC(=O)[C@H](CC(=O)O)NC(=O)[C@H](CCCCN)NC(=O)[C@H](Cc2ccccc2)NC(=O)CSC[C@@H](C(=O)NCC(N)=O)NC(=O)[C@H](CO)NC(=O)[C@H](C(C)C)NC1=O` [Example 1213] ({CH2CO}-FKDWV[Bip]R[NMeA][NMeF]RLVSCG-NH2; thioether N-14) it is 0.59 µM; for `COc1cccc(C[C@@H]2NC(=O)[C@H](CC(=O)O)NC(=O)[C@H](Cc3cccc(C#N)c3)NC(=O)[C@H](Cc3ccncc3)NC(=O)CSC[C@@H](C(=O)N[C@@H](C)C(N)=O)NC(=O)[C@H](CO)NC(=O)[C@H](C(C)C)NC(=O)[C@H](CC(C)C)NC(=O)[C@H](CC(N)=O)NC(=O)CN(C)C(=O)[C@H](C)N(C)C(=O)[C@H](C(C)C)NC(=O)[C@H](Cc3ccc(-c4ccccc4)cc3)NC(=O)[C@H](CC(C)C)NC2=O)c1` [Example 1392] ({CH2CO}-[4Pal][Phe(3-CN)]D[Phe(3-OMe)]L[Bip]V[NMeA][Sar]NLVSCA-NH2; thioether N-14) it is 0.05 µM. The same measure for `CC(C)C[C@@H]1NC(=O)[C@H](Cc2c[nH]c3ccccc23)NC(=O)[C@H](CC(=O)O)NC(=O)[C@H](Cc2ccc(O)cc2)NC(=O)[C@H](Cc2ccccc2)NC(=O)CSC[C@@H](C(=O)N[C@@H](C)C(N)=O)NC(=O)[C@H](CO)NC(=O)[C@H](C(C)C)NC(=O)[C@H](CC(C)C)NC(=O)[C@H](CC(N)=O)NC(=O)[C@H]2CCCN2C(=O)[C@H](C)N(C)C(=O)[C@H](C(C)C)NC(=O)[C@H](Cc2ccc(-c3ccccc3)cc2)NC1=O` [Example 1034] ({CH2CO}-FYDWL[Bip]V[NMeA][dP]NLVSCA-NH2; thioether N-14): 0.06 µM; for `CC(C)C1NC(=O)[C@H](Cc2c[nH]c3ccccc23)NC(=O)[C@H](CC(=O)O)NC(=O)[C@H](Cc2ccc(OCC(=O)O)cc2)NC(=O)[C@H](CN)NC(=O)CSC[C@@H](C(=O)N[C@@H](C)C(N)=O)NC(=O)[C@H]([C@@H](C)O)NC(=O)[C@H](C(C)C)NC(=O)[C@H](CC2CCCCC2)NC(=O)[C@H](CCN)NC(=O)[C@H](Cc2ccc(O)cc2)N(C)C(=O)[C@H](CCCN)NC(=O)[C@H](CCC(=O)O)NC(=O)[C@H](Cc2ccc(-c3ccccc3)cc2)NC1=O` (stereo partly drawn) [Example 1453] ({CH2CO}-[Dap]Y(Carboxymethyl)DW[ξV][Bip]E[Orn][NMeY][Dab][Cha]VTCA-NH2; thioether N-14): 0.32 µM.

Take `COCC[C@@H]1NC(=O)[C@H](C(C)C)NC(=O)[C@H](CC(C)C)NC(=O)[C@H](CCCNC(=N)N)NC(=O)[C@H](Cc2ccccc2)N(C)C(=O)[C@H](C)N(C)C(=O)[C@H](CCCNC(=N)N)NC(=O)[C@H](Cc2ccc(-c3ccccc3)cc2)NC(=O)[C@H](C(C)C)NC(=O)[C@H](Cc2c[nH]c3ccccc23)NC(=O)[C@H](CC(=O)O)NC(=O)[C@H](Cc2ccc(O)cc2)NC(=O)[C@H](Cc2ccccc2)NC(=O)CSC[C@@H](C(=O)NCC(N)=O)NC1=O` [Example 1259] ({CH2CO}-FYDWV[Bip]R[NMeA][NMeF]RLV[hSer](Me)CG-NH2; thioether N-14): the IC50 came out at 0.26 µM. The same measure for `CC(C)C[C@@H]1NC(=O)[C@H](Cc2c[nH]c3ccccc23)NC(=O)[C@H](CC(=O)O)NC(=O)[C@H](Cc2ccc(O)cc2)NC(=O)[C@H](Cc2ccccc2)NC(=O)CSC[C@@H](C(=O)N[C@@H](C)C(N)=O)NC(=O)[C@H]([C@@H](C)O)NC(=O)[C@H](CCCCN)NC(=O)[C@H](CC(C)C)NC(=O)[C@H](CC(N)=O)NC(=O)[C@H]2CCCN2C(=O)[C@H](C)N(C)C(=O)[C@H](C(C)C)NC(=O)[C@H](Cc2ccc(-c3ccccc3)cc2)NC1=O` [Example 1089] ({CH2CO}-FYDWL[Bip]V[NMeA][dP]NLKTCA-NH2; thioether N-14): 0.25 µM; for `CC(C)C[C@@H]1NC(=O)[C@H](Cc2c[nH]c3ccccc23)NC(=O)[C@H](CC(=O)O)NC(=O)[C@H](Cc2ccc(O)cc2)NC(=O)[C@H](Cc2ccccc2)NC(=O)CSC[C@@H](C(=O)N[C@@H](C)C(N)=O)NC(=O)[C@H](CO)NC(=O)[C@H](C(C)C)NC(=O)[C@H](CC(C)C)NC(=O)[C@H](CC(N)=O)NC(=O)[C@H]2Cc3ccccc3CN2C(=O)[C@H](C)N(C)C(=O)[C@H](C(C)C)NC(=O)[C@H](Cc2ccc(-c3ccccc3)cc2)NC1=O` [Example 1049] ({CH2CO}-FYDWL[Bip]V[NMeA][dTic]NLVSCA-NH2; thioether N-14): 0.09 µM; for `CC(C)C[C@@H]1NC(=O)[C@H](Cc2c[nH]c3ccccc23)NC(=O)[C@H](CC(=O)O)NC(=O)[C@H](Cc2ccc(C(=O)O)cc2)NC(=O)[C@H](Cc2cnc[nH]2)NC(=O)CSC[C@@H](C(=O)N[C@@H](C)C(N)=O)NC(=O)[C@H](CO)NC(=O)[C@H](C(C)C)NC(=O)[C@H](CC(C)C)NC(=O)[C@H](CC(N)=O)NC(=O)[C@H]2CCCN2C(=O)[C@H](C)N(C)C(=O)[C@H](C(C)C)NC(=O)[C@H](Cc2ccc(-c3ccccc3)cc2)NC1=O` [Example 1046] ({CH2CO}-H[Phe(4-COOH)]DWL[Bip]V[NMeA][dP]NLVSCA-NH2; thioether N-14): 0.08 µM. The same measure for `CC(C)C[C@@H]1NC(=O)[C@H](Cc2c[nH]c3ccccc23)NC(=O)[C@H](CC(=O)O)NC(=O)[C@H](Cc2ccc(OCC(=O)O)cc2)NC(=O)[C@H](CN)NC(=O)CSC[C@@H](C(=O)N[C@@H](C)C(N)=O)NC(=O)[C@H](CO)NC(=O)[C@H](C(C)C)NC(=O)[C@H](CC(C)C)NC(=O)[C@H](CC(N)=O)NC(=O)[C@H]2CCCN2C(=O)[C@H](C)N(C)C(=O)[C@H](C(C)C)NC(=O)[C@H](Cc2ccc(-c3ccccc3)cc2)NC1=O` [Example 1386] ({CH2CO}-[Dap]Y(Carboxymethyl)DWL[Bip]V[NMeA][dP]NLVSCA-NH2; thioether N-14): 0.14 µM. `CC(C)C[C@@H]1NC(=O)[C@H](Cc2c[nH]c3ccccc23)NC(=O)[C@H](CC(=O)O)NC(=O)[C@H](Cc2ccc(O)cc2)NC(=O)[C@H](Cc2ccccc2)NC(=O)CSC[C@@H](C(=O)N[C@@H](C)C(N)=O)NC(=O)[C@H](Cc2cnc[nH]2)NC(=O)[C@H](C(C)C)NC(=O)[C@H](CC(C)C)NC(=O)[C@H](CC(N)=O)NC(=O)CN(C)C(=O)[C@H](C)N(C)C(=O)[C@H](C(C)C)NC(=O)[C@H](Cc2ccc(-c3ccccc3)cc2)NC1=O` [Example 1127] ({CH2CO}-FYDWL[Bip]V[NMeA][Sar]NLVHCA-NH2; thioether N-14): the half-inhibitory concentration (IC50) stood at 0.48 µM. The figure for `CC(C)C[C@@H]1NC(=O)[C@H](Cc2c[nH]c3ccccc23)NC(=O)[C@H](CC(=O)O)NC(=O)[C@H](Cc2ccc(O)cc2)NC(=O)[C@H](Cc2ccccc2)NC(=O)CSC[C@@H](C(=O)N[C@@H](C)C(N)=O)NC(=O)[C@H](CO)NC(=O)[C@H](C(C)C)NC(=O)[C@H](CC2CCCC2)NC(=O)[C@H](CC(N)=O)NC(=O)CN(C)C(=O)[C@H](C)N(C)C(=O)[C@H](C(C)C)NC(=O)[C@H](Cc2ccc(-c3ccccc3)cc2)NC1=O` [Example 1102] ({CH2CO}-FYDWL[Bip]V[NMeA][Sar]N[Ala(cPent)]VSCA-NH2; thioether N-14) is 0.31 µM; for `CC(C)C[C@@H]1NC(=O)[C@H](Cc2c[nH]c3ccccc23)NC(=O)[C@H](CC(=O)O)NC(=O)[C@H](Cc2ccc(O)cc2)NC(=O)[C@H](Cc2ccccc2)NC(=O)CSC[C@@H](C(=O)N[C@@H](C)C(N)=O)NC(=O)[C@H](CO)NC(=O)[C@H](C(C)C)NC(=O)[C@H](CC(C)C)NC(=O)[C@H](CCCCN)NC(=O)CN(C)C(=O)[C@H](C)N(C)C(=O)[C@H](C(C)C)NC(=O)[C@H](Cc2ccc(-c3ccccc3)cc2)NC1=O` [Example 1099] ({CH2CO}-FYDWL[Bip]V[NMeA][Sar]KLVSCA-NH2; thioether N-14) it is 0.31 µM.
